Data from patent EP0659438A1, “Conjugates consisting of peptidic T cell antigens and cell binding groups, and their use for therapy” (BOEHRINGER MANNHEIM GMBH, priority 1993, dated 1995).

Tested on: T-cell clone SP2.2
Assay: cells
Format: cell-based, human

CCN(CC)CCCC(C)Nc1ccnc2cc(Cl)ccc12 (centres unmarked) [Chloroquine]
inhibition of conjugate induced proliferation: can inhibit | reduction of P2-induced proliferation: 50% | inhibition at 300 µM (Homo sapiens, T-cell, read-out: inhibition of conjugate induced proliferation): 100%

CC(=O)N[C@@H](CC(C)C)C(=O)N[C@@H](CC(C)C)C(=O)N[C@H](C=O)CCCNC(=N)N [Leupeptin]
effect on free peptide induced proliferation: almost no effect | inhibition of conjugate induced proliferation: can inhibit
